In ChEMBL document CHEMBL5727875, “Substituted bicycle heterocyclic derivatives useful as ROMK channel inhibitors” (2020):

Biological target: T1, ATP-sensitive inward rectifier potassium channel 1 (Homo sapiens, UniProt P48048)
T1 sequence (P48048 whole entry): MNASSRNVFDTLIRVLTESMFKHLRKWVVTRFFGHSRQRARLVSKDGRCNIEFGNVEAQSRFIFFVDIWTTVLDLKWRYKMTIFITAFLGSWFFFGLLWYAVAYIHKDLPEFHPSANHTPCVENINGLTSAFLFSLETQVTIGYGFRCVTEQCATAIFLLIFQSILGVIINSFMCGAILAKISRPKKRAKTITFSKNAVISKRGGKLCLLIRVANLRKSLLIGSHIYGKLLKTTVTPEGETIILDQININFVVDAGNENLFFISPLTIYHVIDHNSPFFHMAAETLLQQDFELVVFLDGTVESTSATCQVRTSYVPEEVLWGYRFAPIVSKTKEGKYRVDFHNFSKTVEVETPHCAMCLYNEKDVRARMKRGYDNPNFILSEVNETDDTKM
Assay: Electrophysiology Assay: The coverslip plated with cells was placed in the experiment chamber perfused with bath solution composed of (in mM): 135 NaCl, 5 KCl, 2 CaCl2), 1 MgCl2, 10 HEPES, 5 Glucose (pH 7.4). Patch pipettes with resistance between 2-5 Megaohms, when filled with a solution containing (in mM): 135 KCl, 1 EGTA, 1 MgCl2, 10 HEPES, 2 Na2ATP (pH 7.3), were used to form gigaseals. The …

Cc1c([C@@H](O)CNCc2cnn(-c3ccc4oc(=O)n(C)c4c3)c2)ccc2c1COC2=O
IC50: 12 nM
